In patent US20250270170A1, “2,3-DIMETHOXY-5-METHYL-1,4-BENZOQUINONE ALKYL ALCOHOL DERIVATIVE AND USE THEREOF” (BEIJING ANJIANXI BIO-MEDICAL TECHNOLOGY CO., LTD., priority 2021, published 2025):
Where “and” joins values, the source holds several entries; their conditions need not be identical. Identical values can stand only once. Entries after “also recorded” stand apart in the source; their conditions may differ.

Assays:
Type in all cases: in vivo, C57BL/6J mice
[1] = test system: cisplatin-induced acute kidney damage in mice; experiment: Example 11: serum urea nitrogen (Bun) in cisplatin-induced acute kidney damage model
Protocol: (§1) 42 male C57BL/6J mice (age: 6 to 8 weeks, body weight 18-20 g, certificate number: 11400700238365) were purchased from Si Pei Fu (Beijing) Biotechnology Co., Ltd., and raised in an SPF-grade animal room of the Institute of Materia Medica, Chinese Academy of Medical Sciences, at a temperature of 20 to 25° C., a relative humidity of 40% to 70%, and a cycle of 12 hours of light and 12 hours of dark. The animals had free access to water and food. After 3 days of normal feeding, mice with good physical conditions after the veterinary examination were selected for this assay. Before grouping, a marker was used to mark on the base of the animals' tail. After grouping, each animal was marked with an ear cutout (7 mice in each group).
(§2) Assay animals: 42 7-week-old male C57 mice were used for animal testing after an adaptive feeding.
(§3) Group 1: blank control group;
(§4) The preparation of the R01 formulation administration test solution was the same as that in Example 5: an appropriate amount of the R01 formulation was weighed according to the three dosages set in the assay, respectively, and an appropriate volume of 0.5% CMC-Na aqueous solution was added. The mixture was vortexed and sonicated until mixed evenly, to give the administration test solutions with concentrations of […], respectively, which were ready for use.
(§5) Animal testing period: 7 days (excluding adaptive feeding), hereinafter referred to as: D1-D7.
(§6) 1. The first group was a solvent control group: N=7, all mice were males (the same below); • a) 0.5% solution of sodium carboxymethyl cellulose was gavagely administered from D1 to D6 (twice a day for each animal, with an interval of 8 hours between the morning and the afternoon). • b) Physiological saline was intraperitoneally injected in one-time on D4. • c) On D7, blood was collected from the orbit for euthanasia (300 ul of serum was extracted), the left kidney was fixed in formaldehyde, and the right kidney was preserved in liquid nitrogen (WB study may be carried out).
(§7) 1) The concentrations of urea nitrogen and creatinine in peripheral blood serum were tested.
(§8) The body weight of the animals when being grouped for administration in each group was recorded. The body weight and the kidney weight at the end of the assay were also recorded, and the kidney coefficient was calculated. The creatinine and urea nitrogen values in the blood samples sent for testing were recorded. The kidneys were stained with HE and PAS, and the slides were scanned. A report was issued after the pathological analysis.
(§9) The assay data were calculated and processed statistically using Microsoft Office Excel 2007 software. Unless otherwise specified, the data were expressed as mean±standard error (Mean±SE), and t-test was used for comparison between two groups.

[2] = test system: cisplatin-induced acute kidney damage in mice; experiment: Example 11: renal pathology (HE, PAS) and pathological scoring; settings: cisplatin 10 mg/kg alone (model) or with amifostine 50 mg/kg i.p. half an hour before; trihydrate
Protocol: as §1, §2, §3, §4, §5
1. […]
as §8, with “The kidneys were stained with HE and PAS, and the slides were scanned. A report was issued after the pathological analysis.” left out

[3] = Example 11: body weight in cisplatin-induced acute kidney damage model; settings: Amifostine group
Protocol: as §1, §2, §3, §4, §5, §6
(§10) 3) Each animal was weighed before euthanasia, and the weight was recorded. Two kidneys were weighed as soon as possible after euthanasia, and the weight was recorded. Then, the two kidneys were quickly fixed or cryopreserved, and the kidney coefficient of the mouse was calculated (kidney weight/mouse weight).
as §8, §9

[4] = test system: cisplatin-induced acute kidney damage in mice; experiment: Example 11: kidney weight and kidney coefficient in cisplatin-induced acute kidney damage model
Protocol: as §1, §2, §3, §4, §5, §6, §10, §8, §9

[5] = test system: cisplatin-induced acute kidney damage in mice; experiment: Example 11: serum creatinine (Cre) in cisplatin-induced acute kidney damage model
Protocol: as §1, §2, §3, §4, §5, §6, §7, §8, §9

[6] = group mean, cisplatin model, Amifostine group
[7] = individual animals No. 1-7, cisplatin model, Amifostine group, trihydrate

NCCCNCCSP(=O)(O)O [amifostine, Amifostine trihydrate, reference compound]
serum urea nitrogen value ([1]; cisplatin 10 mg/kg alone (vs blank, P<0.05) or with amifostine 50 mg/kg i.p. (P<0.01)): significantly lower than that of the model group
Urea nitrogen (Bun) level after the assay, x (mean) [1, 6]: 8.1 mg/dL
Urea nitrogen (Bun) level after the assay [1, 7]: 10.92 mg/dL and 8.76 mg/dL and 6.62 mg/dL and 7.23 mg/dL and 7.62 mg/dL and 8.78 mg/dL and 6.47 mg/dL
pathological damage of kidneys [2]: slight renal tubular damage and blurred renal tubular epithelial edges; also recorded: significantly reduced
Body weight, Before x- after x ([3]; difference of group means, cisplatin model): 4.1 g
Body weight before cisplatin modeling, Before x (mean) ([3]; group mean): 20.9 g
Body weight after the assay, After x (mean) ([3]; group mean, cisplatin model): 16.8 g
Body weight before cisplatin modeling ([3]; individual animals No. 1-7, trihydrate): 20.2 g and 20.6 g (2×) and 20.4 g and 20.5 g and 21.8 g and 22.4 g
Body weight after the assay ([3]; individual animals No. 1-7, cisplatin model, trihydrate): 18 g and 16.7 g and 16.8 g and 17.1 g and 16.3 g and 15.8 g and 17.2 g
Kidney coefficient (kidney weight/body weight), x (mean) [4, 6]: 0.014
Kidney weight after the assay, x (mean) [4, 6]: 0.224 g
Kidney coefficient (kidney weight/body weight) [4, 7]: 0.014 (3×) and 0.015 (2×) and 0.013 (2×)
Kidney weight after the assay [4, 7]: 0.223 g and 0.249 g and 0.202 g and 0.227 g and 0.220 g and 0.205 g and 0.241 g
Kidney coefficient (kidney weight/body weight) ([4]; with cisplatin 10 mg/kg, amifostine 50 mg/kg i.p., R01 6, 18, 36 mg/kg bid): equivalent to that of the blank control group
serum creatinine value ([5]; cisplatin 10 mg/kg alone (vs blank, P<0.01) or with amifostine 50 mg/kg i.p. / R01 6, 18, 36 mg/kg bid): equivalent to that of the blank control group
Serum creatinine (Cre) level after the assay, x (mean) [5, 6]: 16.1 mg/dL
Serum creatinine (Cre) level after the assay [5, 7]: 9 mg/dl and 19 mg/dl and 14 mg/dl and 18 mg/dl (3×) and 17 mg/dl
